Results taken from patent US20040049072A1, “RXR modulators with improved pharmacologic profile” (priority 1999, published 2004).
“Also recorded” adds a separate entry of the source. Like-named read-outs stand apart in the source and are kept apart here.

Columns and labels:
RXRα = molecular target: T1, RXRα (Homo sapiens, UniProt P19793); test: RXRα binding (competition with tritiated LGD1069)
T1 sequence (P19793 1-462): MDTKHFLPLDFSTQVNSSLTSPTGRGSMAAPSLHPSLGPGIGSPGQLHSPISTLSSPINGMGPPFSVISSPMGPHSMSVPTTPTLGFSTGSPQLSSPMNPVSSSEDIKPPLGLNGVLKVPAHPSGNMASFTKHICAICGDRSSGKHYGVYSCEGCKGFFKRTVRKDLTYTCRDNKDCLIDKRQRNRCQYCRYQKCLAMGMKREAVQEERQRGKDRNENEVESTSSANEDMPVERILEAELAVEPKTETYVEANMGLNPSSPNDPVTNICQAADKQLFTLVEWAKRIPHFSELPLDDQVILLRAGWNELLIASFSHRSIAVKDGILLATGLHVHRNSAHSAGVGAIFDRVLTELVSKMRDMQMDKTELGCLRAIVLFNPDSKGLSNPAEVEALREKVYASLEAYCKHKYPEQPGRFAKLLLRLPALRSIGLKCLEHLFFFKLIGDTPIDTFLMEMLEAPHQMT
Description: Non-specific binding was defined as that binding remaining in the presence of 500 nM of the appropriate unlabelled compound. At the end of the incubation period, bound ligand was separated from free. The amount of bound tritiated retinoid was determined by liquid scintillation counting of an aliquot (700 μL) of the supernatant fluid or the hydroxylapatite pellet.
After correcting for non-specific binding, IC50 values were determined. […] The IC50 value was determined graphically from a log-logit plot of the data. The Ki values were determined by application of the Cheng-Prussof equation to the IC50 values, the labeled ligand concentration and the Kd of the labeled ligand.

RXRα homodimer (RXR:RXR) = molecular target: T2, RXRα homodimer (RXR:RXR) (Homo sapiens, UniProt P19793); test: RXR homodimer co-transfection assay in CV-1 cells; assay type: cell-based; details: for activity on the RXR:RXR homodimer: cotransfection assay; for RXR:RXR CV-1 (%) Antag.: maximal repression (100%) in presence of 32 nM LGD1069; for RXR:RXR CV-1 (%) Ag.: maximal response relative to ATRA
T2 sequence (P19793 1-462): T1 sequence (P19793 1-462)
Source text: In the co-transfection assay, cloned cDNA for one or more IRs (e.g., human RARα, RXRα, or PPARγ), alone or in combination (i.e. for heterodimer assays) under the control of a constitutive promoter (e.g., the SV 40, RSV or CMV promoter) is introduced by transfection (a procedure to introduce exogenous genes into cells) into a background cell substantially devoid of endogenous IRs. These introduced gene(s) direct the recipient cells to make the IR protein(s) of interest. A further gene is also introduced (co-transfected) into the same cells in conjunction with the IR gene(s). This further gene, comprising the cDNA for a reporter protein, such as firefly luciferase (LUC), controlled by an appropriate hormone responsive promoter containing a hormone response element (HRE). This reporter plasmid functions as a reporter for the transcriptional-modulating activity of the target IR(s). Thus, the reporter acts as a surrogate for the products (mRNA then protein) normally expressed by a gene under control of the target receptor(s) and their native hormone(s).
Exposing the transfected cells to an agonist ligand compound increases reporter activity in the transfected cells. This activity can be conveniently measured, e.g., by increasing luciferase production and enzymatic activity, which reflects compound-dependent, IR-mediated increases in reporter transcription. […] Increasing concentrations of an antagonist will decrease the reporter signal (e.g., luciferase production). The co-transfection assay is therefore useful to detect both agonists and antagonists of specific IRs. Furthermore, it determines not only whether a compound interacts with a particular IR, but whether this interaction mimics (agonizes) or blocks (antagonizes) the effects of native or synthetic regulatory molecules on target gene expression, as well as the specificity and strength of this interaction.
The receptor expression plasmid was cotransfected along with a reporter plasmid at 50 ng/well, the internal control plasmid pRS-β-Gal at 50 ng/well and filler DNA, pGEM, at 90 ng/well.
Six hours after transfection, media was removed and the cells were washed with phosphate-buffered saline (PBS). Media containing compounds of the present invention in concentrations ranging from 10^−10 to 10^−5 M were added to the cells. […] Retinoids were dissolved in dimethylsulfoxide for use in the transcriptional activation assays. Two to three replicates were used for each sample. Transfections and subsequent procedures were performed on a Biomek 1000 automated workstation.
After 40 hours, the cells were washed with PBS, lysed with a detergent-based buffer and assayed for LUC and β-Gal activities using a luminometer or spectrophotometer, respectively. For each replicate, the normalized response (NR) was calculated as: […]
The mean and standard error of the mean (SEM) of the NR were calculated. Data were plotted as the response of the compound compared to the reference compounds over the range of the dose-response curve. […] Antagonist activity was determined by testing the amount of LUC expression in the presence of the RXR agonists described above at the EC50 concentration for such known compounds. […] In addition, the efficacy of antagonists was determined as a function (%) of maximal inhibition.

RXRα:RAR heterodimer = molecular target: T3, RXRα:RAR heterodimer (Homo sapiens, UniProt P19793); test: RXR:RAR heterodimer co-transfection assay in CV-1 cells; assay type: cell-based; details: for agonist activity on the RXR:RAR heterodimer: compound alone; for RXR:RAR CV-1 (%) Antag.: maximal repression (100%) in presence of 10 nM TTNPB; for RXRα:RAR Heterodimer Cotransfection Assay Antagonist Efficacy (%): relative to maximal repression (100%) in presence of 10 nM TTNPB
T3 construct: expressed in transfected cells; host or cells: CV-1 cells
T3 sequence (P19793 1-462): T1 sequence (P19793 1-462)
Description: For determination of agonist activity in the context of the RXR:RAR heterodimer or the RXR:PPARγ heterodimer, media containing compounds of the present invention in concentrations ranging from 10^−10 to 10^−5 M were added to the cells.
Compounds of the present invention were also tested for the ability to synergize with a PPARγ agonist in the context of an RXR heterodimer. […] Efficacy of the compounds of the present invention in the agonist and synergy assays was calculated as the maximum response obtained over the range of the dose response curve relative to the maximum response obtained by the reference agonist. Antagonist efficacy was determined as a function (%) of maximal inhibition.
However, when RAR is occupied, typical RXR agonists activate the heterodimer. […] To examine the effects of the compounds of the present invention on the transcriptional properties of the RXR:RAR heterodimer, a heterodimer cotransfection assay as described above was employed.

db/db mouse = db/db mouse study (rodent model of Type II diabetes); details: for db/db mouse Glu. (D 14): plasma glucose, 100 mg/kg daily oral gavage; for db/db mouse Glu. (D 14) / db/db mouse Trigs. (D 14): day 14
Description: Mice (obtained from Jackson Laboratory), ZDF rats (obtained from Genetic Models Inc.) and fa/fa rats (obtained from either Charles River, or Harlan) were maintained on 12-hour light/dark cycle. […] Compounds were administered at the specified doses by oral gavage on the morning of each day of any experiment. Blood samples were obtained 3 hours after dosing from fed animals under anesthesia and collected into heparinized capillary tubes from the tail vein.

[1] = Table 3, mean of n > 3, read-out: RXRα Binding Ki
[2] = from IC50 by Cheng-Prussof equation, tritiated LGD1069, read-out: Bind RXRα Ki
[3] = Table 3 c4, in presence of 3.2×10^−8 M LGD1069
[4] = CV-1, read-out: RXR:RAR CV-1 (%) Ag.
[5] = CV-1, read-out: RXRα:RAR Heterodimer Cotransfection Assay Agonist Efficacy (%)
[6] = % correction relative to lean values
[7] = plasma triglycerides, % correction relative to lean values, NC = no change
[8] = rodent models of Type II Diabetes

Structure (SMILES)	Ki (RXRα; [1])	Ki (RXRα; [2])	RXRα Homodimer Cotransfection Assay Agonist Efficacy (%) (RXRα homodimer (RXR:RXR); Table 3 c2, mean of n > 3)	RXRα Homodimer Cotransfection Assay Agonist Efficacy (%) (RXRα homodimer (RXR:RXR); [3])	activity on the RXR:RXR homodimer (RXRα homodimer (RXR:RXR))	RXR:RXR CV-1 (%) Antag. (RXRα homodimer (RXR:RXR))	RXR:RXR CV-1 (%) Ag. (RXRα homodimer (RXR:RXR))	Emax (RXRα:RAR heterodimer; [4])	Emax (RXRα:RAR heterodimer; [5])	agonist activity on the RXR:RAR heterodimer (RXRα:RAR heterodimer)	RXR:RAR CV-1 (%) Antag. (RXRα:RAR heterodimer)	RXRα:RAR Heterodimer Cotransfection Assay Antagonist Efficacy (%) (RXRα:RAR heterodimer)	db/db mouse Glu. (D 14) (db/db mouse; [6])	db/db mouse Trigs. (D 14) (db/db mouse; [7])	effect on the thyroid hormone axis (db/db mouse; [8])	further results
CCCCOc1c(/C(C)=C/C=C/C(C)=C/C(=O)O)cc(C(C)(C)C)cc1C(C)(C)C [Compound L4]	0.9 nM	1 nM	1%	92%	highly efficacious and potent antagonist activity with little or no agonist activity	92%	1%	2%	2%	not active as RXR:RAR agonists	88%	88%	50%	105%	absence of detectable suppression of the thyroid hormone axis	IC50 (RXRα homodimer (RXR:RXR); in presence of LGD1069, not calculated if efficacy <10%, read-out: RXRα Homodimer Cotransfection Assay Antagonist IC50): 9 nM; antagonist activity on the RXR:RAR heterodimer (RXRα:RAR heterodimer; antagonist assay): significant RXR:RAR antagonist activity; insulin sensitizing activity with thyroid axis suppression and triglyceride elevations (db/db mouse; [8]): maintain the desirable insulin sensitizing activity and eliminate or reduce both the suppression of the thyroid axis and triglyceride elevations; also recorded: maintain the desirable insulin sensitizing activity and minimize both the suppression of the thyroid axis and triglyceride elevations
COc1c(/C(C)=C/C=C/C(C)=C/C(=O)O)cc(C(C)(C)C)cc1C(C)(C)C [Compound L1]	1.1 nM	1.1 nM	62%	7%	full RXR homodimer agonists; also recorded: agonist activity similar in efficacy and potency to the known RXR agonist, LG100268	7%	62%	21%	21%	weak agonist activity alone	19%	19%	96%	54%	suppress the thyroid hormone axis	EC50 (RXRα homodimer (RXR:RXR); not calculated if efficacy <10%, read-out: RXRα Homodimer Cotransfection Assay Agonist EC50): 33 nM; db/db mouse Trigs. (D3) (db/db mouse; plasma triglycerides, % correction relative to lean values, day 3, NC = no change): 300%; effect on triglycerides (db/db mouse; [8]): raise triglycerides; insulin sensitizing activity / effect on glucose (db/db mouse; [8]): efficacious insulin sensitizers
